According to US20220133761A1, “NEUTROPHIL APOPTOSIS INDUCED BY NANOPARTICLES FOR TREATING INFLAMMATORY DISEASES” (WASHINGTON STATE UNIVERSITY, priority 2020, published 2022):

What was measured:
activated neutrophils = assay: Nanoparticle uptake by blood leukocytes in LPS-induced inflammation mouse model (CLSM, flow cytometry); type: in vivo
Experimental: To investigate cell uptake specificity of BSA NPs in circulation, blood cells were isolated and studied using confocal laser scanning microscopy (CLSM) and flow cytometry. Briefly, 4 h after LPS challenge (i.p., 20 mg kg^−1), DOX-hyd-BSA NPs were intravenously injected into mice. Healthy mice were used as control. 3 h later, the whole blood was harvested in a heparinized tube from the heart. Neutrophils in blood were isolated by Pluriselect anti-mouse LY-6G S-pluribeads according to the manufacturer's protocol (Pluriselect, Spring Valley, Calif.). The cells were fixed with 2 mL of 4% paraformaldehyde for 30 min and were stained with Alexa Fluor 488-labeled anti-mouse LY-6G antibody. A slide smear of cell solution was prepared by 7620 Cytopro Cytocentrifuge (ELITech, Princeton, N.J.). A drop of Prolong Gold Antifade reagent with DAPI (Invitrogen, Eugene, Oreg.) was added on the cells, and a coverslip was applied on the slide. 4 h later, the cells were observed using a Nikon A1R^+ confocal laser scanning microscope.
Flow cytometry to quantify neutrophil uptake of nanoparticles was also utilized. Blood leukocytes were isolated to determine the specificity of uptake of NPs in blood. In brief, 3 mL Histopaque 10771 was carefully layered on top of 3 mL Histopaque 11191 in a 15 mL centrifuge tube. […]

[1] = test system: differentiated HL-60 cells; assay: Apoptosis analysis, Annexin V-FITC / 7AAD staining (flow cytometry, CLSM); type: cell-based, human
Experimental: To investigate the apoptosis of neutrophils induced by DOX, Annexin V-FITC and 7AAD were used to double stain differentiated HL-60 cells. […] The cells were re-suspended in a binding buffer for staining of Annexin V-FITC and 7AAD (emission at 650 nm) according to the manufacturer's protocol (Invitrogen). Stained cells were analyzed using a flow cytometer and imaged by a Nikon A1R^+ confocal laser scanning microscope.

[2] = test system: heart, liver, spleen, lung and kidney; assay: Toxicity by histological analysis (H&E staining of major organs); settings: 0.2 mg/kg DOX
Experimental: After different treatments (healthy, PBS, 4 mg/kg of free DOX, 0.2 mg/kg of free DOX, DOX-hyd-BSA NPs and DOX-ab-BSA NPs, equal to 0.2 mg/kg of DOX for NPs), mice were sacrificed by carbon dioxide asphyxiation. […] The samples were imaged by a microscope (ZEISS, Observer. Z1, USA).

LPS-challenged mice = assay: Second LPS hit (i.t.) in mice that survived sepsis after NP treatment
Experimental: The mice were challenged with LPS (i.p., 50 mg/kg) or PBS (control). 4 h later, the LPS-challenged mice were i.v. treated with DOX-hyd-BSA NPs at 0.2 mg/kg of DOX. The control mice were not treated with LPS and NPs. 72 h later, all survival and control (healthy) mice were challenged with LPS (i.t., 10 mg/kg).
The combinatory experiments were designed in which a mouse was i.p. challenged with LPS to cause sepsis, and then a mouse was treated with DOX-loaded NPs 4 h after the LPS challenge. At 72 h after the LPS challenge, the survival mouse was i.t. administered to examine whether neutrophils can transmigrate and respond to the second hit of LPS (see FIG. 10M of experimental protocol diagram).

[3] = test system: differentiated HL-60 cells (neutrophil-like cells); assay: In vitro cytotoxicity, CCK-8 assay; type: cell-based, human; settings: 24 h, different concentrations of DOX
Experimental: Cytotoxic effects of BSA NPs on HL-60 cells were measured by CCK-8 assay. HL-60 cells were plated in 96-well plates (Costar, Corning, N.Y.) at 5,000-10,000 cells/well. After incubation for 24 h, the culture medium was removed and a complete medium with various concentrations of free DOX, BSA and DOX-conjugated BSA NPs was used to incubate cells for 24 h, respectively. 10 μL of the solution cell proliferation reagent (Promega, Madison, Wis.) per well was added. Then, the cell viability was measured by a Synergy Neo fluorescence plate reader (BioTek, Winooski, Vt.) at 490 nm.

cerebral I/R mouse model = assay: Middle cerebral artery occlusion (MCAO) cerebral I/R mouse model; type: in vivo
Experimental: CD1 mice were used. Mice were anesthetized using 100 mg/kg of ketamine and 5 mg/kg of xylazine. They were positioned in the supine position on a heating pad. A carotid artery (CA) was exposed via the midline neck incision. An external carotid artery (ECA) was separated and occulated with two knots. Next, the internal carotid artery (ICA) was isolated, and the CA and ICA were clipped. A small hole was cut in the ECA above the second knot. A 6-0 medium MCAO suture was then introduced into ICA. Mice were kept for 60 min after occlusion in a heated cage, and the suture was withdrawn for reperfusion. Finally, the skin was closed and the mice were returned to the individual cage.
The damaged brain tissues were collected 24 h after MCAO and homogenized in PBS with 5% hexadecyltrimethylammonium bromide (HTAB). The homogenate was sonicated, and centrifuged at 13,000 rpm for 10 min. Next, 10 μL supernatant was loaded into each well of a 96-well plate. A solution of o-Dianisidine dihydrochloride with 0.0005% hydrogen peroxide in potassium phosphate buffer was added to the samples. Absorbance was measured at 450 nm. MPO activity is expressed as change in absorbance per minute per gram of tissue.
The damaged brain tissues of mice were collected 24 h after MCAO surgery and homogenized in PBS buffer. The level of cytokines (TNF-α, IL-1β, IL-6) was quantified using commercial ELISA assay as aforementioned.
Videos were taken 24 h after MCAO surgery and neurological deficit scores were given by two people. The scores are divided into five grades for neurological scores of mice after cerebral ischemia.

[4] = pH-triggered DOX release, UV-Vis of supernatants after 2 h incubation; type: physicochemical
Experimental: To confirm the pH-triggered drug release property, BSA NPs, DOX-ab-BSA NPs and DOX-hyd-BSA NPs were incubated in PBS at pH 7.4, 6.5 and 5.0 for 2 h, respectively. After centrifugation, the supernatants were collected to determine DOX concentrations using a UV-Vis spectrometer.

[5] = 0.2 mg/kg DOX i.v. 1 h after reperfusion, 22 h post-injection, vs free DOX and PBS

## DOX-hyd-BSA NPs
Activated neutrophils; 4 h after i.p. LPS 20 mg/kg, blood 3 h after i.v. NPs
  neutrophil uptake of NPs: neutrophil uptake was observed
Activated neutrophils; LPS-challenged mice, flow cytometry
  uptake by T cells, monocytes and natural killer (NK) cells in blood: did not take up BSA NPs
[1]; 24 h, DOX 3 μg/mL
  apoptotic cells by flow cytometry: 89%
[1]; 24 h treatment
  Annexin V-FITC / 7AAD staining by confocal microscopy: contained staining of Annexin-V-FITC, and less staining of 7AAD
[2]
  tissue or cellular damage in H&E sections of heart, liver, spleen, lung, kidney: did not show any noticeable signs of tissue or cellular damage
LPS-challenged mice; 0.2 mg (DOX)/kg dose
  body weight of mice that survived sepsis: returned to their initial weight
LPS-challenged mice; i.t. LPS 10 mg/kg at 72 h, BALF at 84 h, vs healthy mice
  response of neutrophils to second LPS challenge (BALF neutrophils, cytokines): can immediately respond to the challenge of LPS like what the healthy mice did
[3]
  cytotoxicity (cell viability): cytotoxicity was similar for both free DOX and DOX-hyd-BSA NPs
Cerebral I/R mouse model; [5]
  cytokines in the brain (TNF-α, IL-1β, IL-6): significantly reduced
  neutrophil numbers in the brain (MPO activity): significantly reduced
Cerebral I/R mouse model; 0.2 mg/kg of DOX, 24 h after MCAO
  neurological deficits (behavior scores): enhanced mouse neurological recovery and improved mouse movements
[4]; pH 5.0 and 6.5, 2 h incubation in PBS
  DOX absorption at 480 nm in supernatant: Absorption of DOX molecules at 480 nm was observed
[4]; pH 7.4, 2 h incubation in PBS
  DOX in supernatant: did not observe DOX in the supernatant
